{"source": "patent US3954793A", "about": "“1-(2-Propynyl)-1 H-indazole compounds” (priority 1973, dated 1976)", "key": {"[1]": {"tested_on": "polyvalent resistant (CH strain) houseflies", "experiment": "whole plant or invertebrate", "assay_type": "in vivo", "protocol": "The effect of O-(2-propynyl) oximes with Dimetilan and with GS 13798 was obtained from tests on polyvalent resistant (CH strain) houseflies that had been chilled and to the dorsal region of which was applied an acetone solution of synergist and insecticide at a ratio of two to one. Duplicate tests were performed using 10 four to five-day old female houseflies per test. After dosage, the flies were put in a plastic petri dish with cotton soaked in a sugar-water solution. These doses of insecticide used without synergist caused 10-40% mortality.\n(§1) In Table IX, and in the tables following it, the doses of topically applied insecticides and of synergists unless otherwise noted are expressed as micrograms per fly (μg/fly).\nThe effect of compounds II-C, II-D and II-E with Dimetilan and GS 13798 was determined, following the procedure of Example 5, from tests on polyvalent resistant (CH strain) houseflies. These doses of insecticide used without synergist caused 10-40% mortality.\n(§2) The synergistic effect with GS 13005 of compounds I-A, I-B, I-D, I-E, I-F, I-G and I-I was determined from topical application tests to IN/WHO strain, Rutgers A strain and polyvalent CH strain houseflies using the procedures of Example 5. The percent kills of the IN/WHO strain flies after 24 hours are shown in Table XXVIII; of the Rutgers A strain, in Table XXIX; and of the polyvalent CH strain, in Table XXX. The doses of insecticide alone to the CH strain files caused 10-40% mortality.\n(§3) The synergistic effect with Diazinon and GS 13005 of various of the benzyl 2-propynyl ethers identified in Tables II and IIa was determined by topical application tests on IN/WHO strain, and Rutgers A strain and polyvalent, resistant, CH strain houseflies using the procedures of Example 5. The percent kills after 24 hours of IN/WHO strain flies are shown in Table XXXI; of Rutgers A strain flies, in Table XXXII; and of CH strain flies, in Table XXXIII. The doses of insecticide alone to the CH strain flies caused 10-40% mortality.\nThe synergistic effect with pyrethrum of various synergist compounds was determined by topical application tests on polyvalent, resistant CH strain houseflies following the procedure of Example 5. Application of the insecticide alone caused 10-40% mortality."}, "[2]": {"tested_on": "Wilson strain house flies", "assay_type": "in vivo, Wilson strain (susceptible)", "settings": "for Contact Synergistic Ratio, Pyrolan: LC50 pyrolan alone / LC50 with synergist, synergist to insecticide 5:1 by weight; for Contact Synergistic Ratio, Carbaryl: in vivo", "protocol": "The required solutions of the insecticide and of the synergist compound were prepared in acetone at a concentration of 1 milligram per milliliter. One-pint wide mouth glass jars were coated with the appropriate insecticide-synergist combination by rolling the jars containing aliquots of the appropriate solutions diluted to three milliliters with acetone to deposit, by evaporation, a film of the test materials. The flies were transferred under carbon dioxide anesthesia and held in the jar at room temperature. Perforated aluminum foil was used to cover the jars and to hold cotton saturated with 10% sugar solution. Counts were made at intervals, but the recorded mortality was based on 24-hour kill, rather than knockdown. All prostrate non-moving flies were considered dead. A determination was then made of the contact synergistic ratio [SR], which is the ratio of the LC50 of insecticide alone to the LC50 of the insecticide when applied together with the synergist. The LC50 of the insecticide was estimated from a log-probit plot of percent kill versus dosage. […] The LC50 of the combination of insecticide and synergist was determined at a synergist to insecticide parts by weight ratio of five to one."}, "[3]": {"tested_on": "IN/WHO strain house flies", "experiment": "topical application, percent kill after 24 hours, susceptible IN/WHO strain", "assay_type": "in vivo, female)", "protocol": "as §1\n(§4) The synergistic effect of O-(2-propynyl) oximes with mobam was determined from topical application tests on susceptible, female, IN/WHO strain house flies and from tests on resistant, female, Rutgers A strain house flies. The synergist and insecticide were dissolved in ACS Grade acetone in such quantities that a 1.0 μ liter volume applied to the thorax of 3-to-5 day old CO2 -anesthetized female adult house flies contained the desired dosage. After being treated, the flies were confined, 10 to a plaster petri dish, with 3-5 dishes/treament, and held for 24-hr. observation of mortality. Reconstituted skim milk on cotton dental wicks was provided during the holding period. The percent kills after 24 hours are shown in Table X for the IN/WHO strain and Table XI for the Rutgers A strain.\n(§5) The synergistic effect of benzyl 2-propynyl ethers with mobam was determined from topical application tests on IN/WHO and Rutgers A strain houseflies, following the procedure of Example 5. The percent kills after 24 hours are shown in Table XIV for the IN/WHO strain and in Table XV for the Rutgers A strain.\nThe effects of varying the insecticide dose and the synergist-insecticide ratio are further illustrated, with synergist compounds II-D, II-E, II-F and Mobam insecticide, in Tables XVI, XVII and XVIII. […]\nThe effect on IN/WHO flies of synergist compound IV-C, identified in Table IV, with mobam was determined by the topical application procedure of Example 5. […]\nas §2\nas §3, with “mortality. […]” for “mortality.”\n(§6) The synergistic effect on IN/WHO strain flies and Rutgers A strain flies of compound IV-C with GS 13005 and with Diazinon was determined by the topical application procedure of Example 5. The percent kills of IN/WHO strain flies after 24 hours are shown in Tables XXXVI and XXXVII; the percent kills of Rutgers A strain flies are shown in Tables XXXVIII and XXXIX."}, "[4]": {"tested_on": "Swiss albino, white male mice", "experiment": "acute toxicity and synergism of acute toxicity in mice", "assay_type": "in vivo", "settings": "48 hours; for Lethality, Dimetilan alone (number of mice dead) / number of mice dead, with Dimetilan: eight mice; for number of mice dead, with Dimetilan: Dimetilan 8 + synergist 240 mg/kg i.p.", "protocol": "To determine the acute toxicity of dimetilan alone, eight dosage levels of Dimetilan, ranging from 4 to 32 mg per kg were applied to eight, Swiss, albino, white, male mice per dosage level. The mice weighed approximately 23 to 27 grams and were five to six weeks old. The Dimetilan was administered intraperitoneally in 0.1 ml of corn oil one hour after the administration of the same dose of corn oil alone.\nTo determine the acute toxicity of the synergist alone, various synergists were administered intraperitoneally at a dose of 1000 mg/kg to each of a group of eight mice. The number of animals dead at the end of 72 hours is reported in the left hand column of Table XXXXVI.\nThe synergism of the acute toxicity of Dimetilan by various synergists was determined by tests on Swiss albino, white male mice aged five to six weeks and weighing 23 to 27 grams. The synergists and insecticides were dissolved in corn oil and the drugs were dissolved in distilled water. All compounds were administered intraperitoneally by injection in the lower quadrent of the abdomen. The synergist was administered in 0.1 ml of corn oil one hour prior to administration of the insecticide. Eight mice were treated, per dosage, with each synergist. The mice were watched for a minimum of 6 hours while held in a glass jar with bedding individually after intraperitoneal injection of the test solutions. Lethality was noted, the animals were weighed and transferred in cages, and food and water were supplied. Control mice were given 0.1 ml of corn oil at the time of administration of the synergist to the test mice and 0.1 ml corn oil plus Dimetilan at the time of administration of the insecticide to the test mice.\nBy the same procedure, the synergism of acute toxicity of GS 13005, Secobarbital and 6-dimethylamino-4,4-diphenyl-3-heptanone [Methadone] was determined."}, "[5]": {"tested_on": "Rutgers A strain house flies", "experiment": "topical application, percent kill after 24 hours, resistant Rutgers A strain", "assay_type": "in vivo, female)", "protocol": "as §1, §4, §5\nThe synergistic effect with Diazinon of compounds I-B, I-D, I-F, I-G, I-H and I-I, identified in Tables I and Ia, was determined from topical application tests on IN/WHO strain houseflies and on Rutgers A strain houseflies by the procedure of Example 5. The percent kills after 24 hours are shown in Table XXV for the IN/WHO strain and Table XXVI for the Rutgers A strain.\nas §2, §3, §6"}, "[6]": {"tested_on": "male mice", "experiment": "extension of sleeping time of depressant drugs by synergists", "assay_type": "in vivo, male mice (Swiss albino white)", "settings": "for Mean Sleeping Time, Noludar / Relative Sleeping Time, Noludar: Noludar 110 mg/kg; for Mean Sleeping Time, Noludar / Mean Sleeping Time, Secobarbital: synergist 110 mg/kg one hour prior; for Relative Sleeping Time, Noludar / Relative Sleeping Time, Secobarbital: synergist 110 mg/kg, treated/control; for Mean Sleeping Time, Secobarbital / Relative Sleeping Time, Secobarbital: Secobarbital 37 mg/kg", "protocol": "The selectivity of the synergist compounds of this invention is illustrated by the results of sleeping-time extension tests and of acute toxicity tests on Swiss albino white male mice.\nThe effect of various synergist compounds on sleeping time of sodium secobarbital [Secobarbital] and of 3,3-diethyl-5-methyl-2,4-dioxypiperidine [Noludar] was determined by administering the drug, with and without synergist, to approximately 38-day old male mice weighing from 25 to 30 grams. Synergists were administered in each of two doses, 74.0 mg/kg (dilution being 2.0 mg/0.1 ml corn oil), and 110.0 mg/kg (dilution 3.0 mg/0.1 ml oil). Secobarbital was administered at a dose of 37.0 mg/kg (dilution 1.0 mg/0.1 ml water). Noludar was administered at a dose of 110.0 mg/kg (dilution 3.0 mg/0.1 ml water). The synergist was administered one hour prior to administration of the Secobarbital or Noludar. Secobarbital and Noludar sleeping times were obtained for both the control (drug only) and the treated (synergist plus drug) mice by noting the time lapse between the administration of the drug and the recovery of the righting reflex, i.e. when the animal regains conciousness and can walk up an inclined wooden tray with coordination. The relative sleeping time (R.S.) was noted. The R.S. is the extended sleeping time in the treated mice (synergist plus drug) divided by the sleeping time in the control mice (drug only). The mean sleeping time for the treated mice and the R.S. are shown on Table XXXXIV for various synergist compounds."}, "[7]": {"settings": "insecticide alone at the doses of the CH strain tables, 1440 min"}, "[8]": {"settings": "Dimetilan 8 mg/kg, oil in place of synergist"}}, "note": "“And” between values parts separate entries of the source, which are not always exact repeats. Equal entries are not always repeated."}
{"compound": "Cc1cc(OC(=O)N(C)C)nn1C(=O)N(C)C", "note": "[Dimetilan, 1-(dimethylcarbamoyl)-5-methyl-3-pyrazolyl dimethylcarbamate, reference compound]", "values": [{"measurement": "mortality, insecticide used without synergist", "setting": "[1]; [7]", "value": "10-40%"}, {"measurement": "lethality to the common house fly, in words", "setting": "[2]; insecticide alone, common house fly", "value": "relatively lethal"}, {"measurement": "24 hour percent mortality, Dimetilan alone", "setting": "[3]; Dimetilan 0.031 μg/fly", "value": 0, "unit": "%"}, {"measurement": "Lethality, Dimetilan alone (number of mice dead)", "setting": "[4]; 4.0 mg/kg i.p.", "value": 0}, {"measurement": "Lethality, Dimetilan alone (number of mice dead)", "setting": "[4]; 8.0 mg/kg i.p.", "value": 0}, {"measurement": "Lethality, Dimetilan alone (number of mice dead)", "setting": "[4]; 12.0 mg/kg i.p.", "value": 1}, {"measurement": "Lethality, Dimetilan alone (number of mice dead)", "setting": "[4]; 16.0 mg/kg i.p.", "value": 3}, {"measurement": "Lethality, Dimetilan alone (number of mice dead)", "setting": "[4]; 20.0 mg/kg i.p.", "value": 4}, {"measurement": "Lethality, Dimetilan alone (number of mice dead)", "setting": "[4]; 24.0 mg/kg i.p.", "value": 7}, {"measurement": "Lethality, Dimetilan alone (number of mice dead)", "setting": "[4]; 28.0 mg/kg i.p.", "value": 8}, {"measurement": "Lethality, Dimetilan alone (number of mice dead)", "setting": "[4]; 32.0 mg/kg i.p.", "value": 8}, {"measurement": "number of mice dead, Dimetilan control (0.1 ml oil), 80 mg/kg", "setting": "[4]; [8]", "value": 0}, {"measurement": "number of mice dead, Dimetilan control (0.1 ml oil), 240 mg/kg", "setting": "[4]; [8]", "value": 0}, {"measurement": "dose level just below that at which Dimetilan alone showed lethality to the mice", "setting": "[4]; i.p.", "value": 8, "unit": "mg/kg"}]}
{"compound": "CCOP(=S)(OCC)Oc1cc(C)nc(C(C)C)n1", "note": "[Diazinon, O,O-diethyl O-(2-isopropyl-4-methyl-6-pyrimidyl) phosphorothioate, reference compound]", "values": [{"measurement": "percent kill after 24 hours, Diazinon alone", "setting": "[5]; Diazinon 1.0, synergist 0 μg/fly", "value": 0, "unit": "%"}, {"measurement": "percent kill after 24 hours, Diazinon alone", "setting": "[5]; Diazinon 1.5, synergist 0 μg/fly, 1440 min", "value": "3% and 0%"}, {"measurement": "mortality, insecticide used without synergist", "setting": "[1]; house fly, in vivo, topical or ocular, 24 h", "value": "10-40%"}, {"measurement": "percent kill after 24 hours, Diazinon alone", "setting": "[3]; Diazinon 0.02, synergist 0 μg/fly", "value": 3, "unit": "%"}, {"measurement": "percent kill after 24 hours, Diazinon alone", "setting": "[3]; Diazinon 0.03, synergist 0 μg/fly, 1440 min", "value": "0% and 5%"}]}
{"compound": "C#CCn1nc(Cl)c2ccccc21", "note": "[III-B]", "values": [{"measurement": "Mean Sleeping Time, Noludar", "setting": "[6]", "value": 46, "unit": "min"}, {"measurement": "Relative Sleeping Time, Noludar", "setting": "[6]", "value": 1.0}, {"measurement": "Mean Sleeping Time, Secobarbital", "setting": "[6]", "value": 66, "unit": "min"}, {"measurement": "Relative Sleeping Time, Secobarbital", "setting": "[6]", "value": 1.3}, {"measurement": "Contact Synergistic Ratio, Pyrolan", "setting": "[2]", "value": 30}, {"measurement": "Contact Synergistic Ratio, Carbaryl", "setting": "[2]", "value": 117}, {"measurement": "number of mice dead, with Dimetilan", "setting": "[4]", "value": 0}]}
{"compound": "CNC(=O)Oc1cccc2ccc(C)nc12", "note": "[GS 13798, 8-(2-methylquinolyl)-N-methylcarbamate, reference compound]", "values": [{"measurement": "mortality, insecticide used without synergist", "setting": "[1]; [7]", "value": "10-40%"}]}
{"compound": "C#CCn1ncc2ccc(Cl)cc21", "note": "[III-D]", "values": [{"measurement": "Mean Sleeping Time, Noludar", "setting": "[6]", "value": 45, "unit": "min"}, {"measurement": "Relative Sleeping Time, Noludar", "setting": "[6]", "value": 1.5}, {"measurement": "Mean Sleeping Time, Secobarbital", "setting": "[6]", "value": 55, "unit": "min"}, {"measurement": "Relative Sleeping Time, Secobarbital", "setting": "[6]", "value": 1.2}, {"measurement": "Contact Synergistic Ratio, Pyrolan", "setting": "[2]", "value": 25}, {"measurement": "Contact Synergistic Ratio, Carbaryl", "setting": "[2]", "value": 250}, {"measurement": "number of mice dead, with Dimetilan", "setting": "[4]", "value": 1}]}
